{"source": "patent US20120213707A1", "about": "“Riboflavin Based Aerosol and Use as Placebo in Trials” (MPEX PHARMACEUTICALS, INC., priority 2009, published 2012)", "key": {"[1]": {"assay": "Stability of dosing formulations in saline", "format": "physicochemical", "conditions": "saline formulations 0.5-5.0 mg/mL, refrigerated at least 48 hours or room temperature on day of preparation", "procedure": "(§1) The test (0.5 mg/mL, 2.0 mg/mL, 5.0 mg/mL) and/or vehicle control formulations (0 mg/mL) for each group were prepared fresh daily on each day by dissolving the test article in saline. All prepared test article formulations were protected from light and kept at room temperature (RT).\nAnalyses determined that all formulations were within acceptance criteria ranges (±10%). The formulation concentrations ranged between 94.4 and 106.4% of nominal concentrations and therefore considered acceptable.\nAnalyses determined that all formulations were within acceptance criteria ranges (±10%). The formulation concentrations ranged between 94.9 and 104.5% of nominal concentrations and were therefore considered acceptable. […]"}, "[2]": {"system": "Beagle dogs", "assay": "28-day aerosolized liquid inhalation (oronasal) toxicity study in Beagle dogs", "format": "in vivo", "from_the_text": "The objective of the study was to determine the toxicity and toxicokinetic profile of the test article, Riboflavin 5′-phosphate, following inhalation (oronasal) administration to dogs for 28 consecutive days.\nTest article: riboflavin 5′-phosphate sodium salt hydrate; alternate identity: vitamin B2 phosphate; description: yellow crystals; potency: 74%. Vehicle article: saline (0.9% (w/v) NaCl for injection); description: clear colorless solution. Exposure method: inhalation by oronasal face mask exposure.\nas §1\n(§2) Duration of treatment: 28 days. Test system: Dog (Canis familiaris); strain: Beagle.\n(§3) The aerosol was produced by metering the flow of the test and control article formulations to 3 clinical nebulizers (Sidestream). The aerosol produced was discharged through a 40 mm diameter tube into a flow-past inhalation exposure system. The airflow rate through the exposure system was monitored and recorded manually during the aerosol generation. Airflow to the exposure system was controlled by the absolute volume of air supplying the aerosol generators using variable area flow meters. Control of the aerosol exhaust flow from the animal exposure system was achieved using an exhaust valve. The system provided a minimum of 6 L/min of aerosol to each animal exposure position and the inlet and outlet airflows were balanced to ensure that there was no dilution of the generated aerosol by air drawn from the environment. Any minor variations in flow were buffered by a balloon reservoir. An equal delivery of aerosol to each exposure position was achieved by employing a distribution network that was identical for each individual exposure position attached to the system.\nMortality checks were performed once daily during the acclimation and pre-treatment periods, and twice a day (am and pm) during the treatment period of the study.\nCage-side clinical signs (ill health, behavioral changes etc.) were recorded for all animals once daily during the acclimation period and twice daily (pre-exposure and post-exposure) during the treatment period except on detailed clinical examination days. A detailed clinical examination of each dog was performed (replacing a cage-side clinical sign observation in the morning) at least once pretreatment, one day prior to Day 1, weekly during the treatment period and before necropsy.\nBody weights were recorded for all animals at least once prior to group assignment, and approximately one week prior to initiation of treatment. Body weights were recorded for all animals one day prior to Day 1 and weekly during the treatment period, as well as terminally.\nIndividual daily food intake was recorded for all animals during the last week of the pretreatment period and throughout the treatment period.\nFunduscopic (indirect ophthalmoscopy) and biomicroscopic (slit lamp) examinations were performed for all animals, once during the pre-treatment period and during Week 4 of the treatment period.\nElectrocardiograms (limb leads I, II and III, and augmented leads aVR, aVL and aVF) were obtained for all dogs once during the pre-treatment period and at least 90 minutes (between 90-120 minutes) postexposure on Days 1 and during Week 4 of the treatment period. In addition, indirect blood pressure was measured on the same occasions as ECG using a tail cuff. The tracings were assessed for gross changes indicative of cardiac electrical dysfunction and the potential presence of abnormalities involving heart rate (lead II), sinus and atrioventricular rhythm or conductivity were determined. Heart rate, PR interval, QRS duration, QT and QTc intervals values were tabulated for incorporation into the study report. […]"}, "[3]": {"assay": "Toxicokinetics in dogs: plasma riboflavin 5′-phosphate and metabolite riboflavin after aerosolized doses for 28 days", "format": "in vivo, Dog (Canis familiaris)", "procedure": "as §2\nA series of 9 blood samples (approximately 2.0 mL each) were removed from each dog on each of Days 1 and 28 of the treatment period. For this purpose, each dog was bled by venipuncture and the samples were collected into tubes containing the anticoagulant, Sodium Heparin. Tubes were placed immediately on wet ice pending processing within 30 minutes of collection. On each occasion, samples were collected at pre-dose, immediately post exposure (IPD), 15 and 30 minutes, 1, 2, 4, 6 and 24 hours post exposure. Following collection, the samples were centrifuged (approximately 4° C.) and the resulting plasma was recovered and stored frozen at ITR (approximately −20° C.) in labeled tubes protected from light pending shipment (on dry ice)."}, "[4]": {"assay": "Aerosol particle size distribution, dog oronasal exposure system (7-Stage Mercer Cascade Impactor)", "format": "physicochemical", "from_the_text": "as §3\nDeterminations of aerosol concentration, particle size distribution, oxygen concentration, relative humidity and temperature were performed on test atmosphere samples collected from a representative port of the exposure system, with a collection sample flow-rate of 1 L/min. The sample flow rates were precisely controlled using variable area flow meters that were calibrated before use using a primary airflow calibrator. The absolute volume of each aerosol concentration sample was measured using a wet type gas meter.\nThe distribution of particle size in the generated aerosols for Groups 2 to 4 were measured weekly during the treatment period by collecting samples into a 7-Stage Mercer Cascade Impactor and the particle size of aerosolized Riboflavin 5′-phosphate was determined using a validated analytical. The distribution of particle size in the generated aerosols for Group 1 were estimated once weekly by gravimetric determination. The MMAD and the Geometric Standard Deviation (GSD) were calculated based on the results obtained from the impactor using a log-probit transformation."}, "[5]": {"conditions": "Group 2 Low Dose, 0.5 mg/mL formulation"}, "[6]": {"conditions": "Group 3 Mid Dose, 2.0 mg/mL formulation"}, "[7]": {"conditions": "Group 4 High Dose, 5.0 mg/mL formulation"}}}
{"smiles": "Cc1cc2nc3c(=O)[nH]c(=O)nc-3n(C[C@H](O)[C@H](O)[C@H](O)COP(=O)(O)O)c2cc1C", "note": "[riboflavin 5′-phosphate]", "values": [{"measurement": "formulation stability", "setting": "[1]; dog study", "result": "stable"}, {"measurement": "formulation stability", "setting": "[1]; rat study", "result": "stable"}, {"measurement": "No Observed Effect Level (NOEL)", "setting": "[2]; Beagle dogs, oronasal inhalation up to 60 minutes/day, 28 consecutive days, high-dose group", "result": 1.341, "unit": "mg/kg/day"}, {"measurement": "tolerability", "setting": "[2]; beagle dogs, inhalation exposure 28 days", "result": "well tolerated"}, {"measurement": "blood pressure", "setting": "[2]; dog, in vivo", "result": "no changes in blood pressure that were considered related to treatment"}, {"measurement": "clinical chemistry", "setting": "[2]; dog, in vivo", "result": "no changes noted in clinical chemistry parameters that were considered to be treatment-related"}, {"measurement": "clinical signs", "setting": "[2]; dog, in vivo", "result": "no clinical signs related to treatment"}, {"measurement": "coagulation times", "setting": "[2]; dog, in vivo", "result": "unaffected by treatment"}, {"measurement": "electrocardiogram wave forms", "setting": "[2]; dog, in vivo", "result": "unaffected by treatment"}, {"measurement": "food consumption", "setting": "[2]; dog, in vivo", "result": "no changes noted in food consumption that were considered to be treatment-related"}, {"measurement": "hematology", "setting": "[2]; dog, in vivo", "result": "no changes noted in hematology parameters that were considered to be treatment-related"}, {"measurement": "macroscopic findings", "setting": "[2]; dog, in vivo", "result": "no macroscopic findings that were considered to be test article related"}, {"measurement": "microscopic findings", "setting": "[2]; dog, in vivo", "result": "no evidence of test article-related histopathological finding"}, {"measurement": "ophthalmology", "setting": "[2]; dog, in vivo", "result": "no ocular changes noted that were considered to be treatment-related"}, {"measurement": "organ weights", "setting": "[2]; dog, in vivo", "result": "slight increase in spleen weight"}, {"measurement": "respiratory parameters (respiratory rate, tidal volume and minute volume)", "setting": "[2]; dog, in vivo", "result": "no changes in respiratory parameters evaluated"}, {"measurement": "urinalysis", "setting": "[2]; dog, in vivo", "result": "no changes in any of the urinalysis parameters evaluated that were considered affected by treatment"}, {"measurement": "adverse effects", "setting": "[2]; dog, in vivo, 1.34 mg/kg/day", "result": "no adverse effects were observed"}, {"measurement": "mortality", "setting": "[2]; dogs, 28 days inhalation", "result": "no premature deaths"}, {"measurement": "accumulation following repeated dosing", "setting": "[3]; 28 days", "result": "no accumulation"}, {"measurement": "gender related difference of riboflavin plasma exposure", "setting": "[3]; Day 1, single administration", "result": "no observed apparent gender related difference"}, {"measurement": "dose dependence of riboflavin plasma exposures (Cmax and AUC(0-T))", "setting": "[3]; both sexes, Day 1", "result": "increased as a function of the administered doses"}, {"measurement": "dose dependence of riboflavin plasma exposures (Cmax and AUC(0-T))", "setting": "[3]; both sexes, Day 28", "result": "increased as a function of the administered doses"}, {"measurement": "dose proportionality of riboflavin exposures (Cmax and AUC(0-T))", "setting": "[3]; both sexes, overall", "result": "appeared to be dose proportional"}, {"measurement": "gender difference in riboflavin exposure", "setting": "[3]; overall", "result": "no gender difference in riboflavin exposure"}, {"measurement": "riboflavin 5′-phosphate concentrations in plasma of treated animals", "setting": "[3]; single or repeated exposures", "result": "detected in only a single treated animal"}, {"measurement": "% of particles <3.1 μm", "setting": "[4]; [5]", "result": 91.1, "unit": "%"}, {"measurement": "MMAD", "setting": "[4]; [5]", "result": 1.1, "unit": "μm"}, {"measurement": "% of particles <3.1 μm", "setting": "[4]; [6]", "result": 93.3, "unit": "%"}, {"measurement": "MMAD", "setting": "[4]; [6]", "result": 1.1, "unit": "μm"}, {"measurement": "% of particles <3.1 μm", "setting": "[4]; [7]", "result": 87.2, "unit": "%"}, {"measurement": "MMAD", "setting": "[4]; [7]", "result": 1.2, "unit": "μm"}]}
